# What was measured:
# Bsp184FDH = test: Inhibition studies of Bsp184FDH-catalysed formate oxidation; assay type: biochemical, Burkholderia cenocepacia PC184
# Procedure: (§1) Inhibition of formate oxidation by Bsp383FDH or Bsp184FDH was performed in the presence of the following potential inhibitors: NaN3, NaNO2, KNO3, KNO2, KCN and iodoacetamide at 5 mM and 20 mM concentrations. In a typical procedure, 10 μL of enzyme, Bsp383FDH (0.022 mg/mL) or Bsp184FDH (0.020 mg/mL) was incubated in sodium phosphate buffer (50 mM, pH 7.0) containing 100 mM of formate (sodium formate) and 5 mM and 20 mM inhibitors concentrations for 5 minutes at room temperature. Reaction of formate oxidation was then initiated by addition of NADP in 5 mM final concentration. Absorbance at 340 nm due to NADPH formation was spectrophotometrically monitored using a microtiter plate reader. Absorbance was recorded at 10 seconds intervals for 10 minutes. Initial activities were then calculated using the linear part of the initial readings using at least 20 data points and used directly as relative activity values. Control experiments were also performed in the absence of the enzyme.
# Bsp383FDH = test: Inhibition studies of Bsp383FDH-catalysed formate oxidation; assay type: biochemical, Burkholderia sp. 383
# Procedure: as §1
compound,measurement,setting,value
O=C[O-].[Na+] [Formate salt],inhibition of BcenFDH1,Bsp184FDH,does not inhibit
same,inhibition of BspFDH2,Bsp383FDH,does not inhibit

# Reference: patent publication US20100086958A1, “NOVEL ENZYME” (priority 2008, published 2010)
